pIC50: −log10 of the molar value.
Each compound was assayed against T1, human CXCR6 (Homo sapiens, UniProt O00574) (assay: Radioligand Binding Assay (125I-CXCL16 displacement)). Settings: L1.2 cells stably transfected with human CXCR6 cDNA, 0.1 nM 125I-CXCL16, 4° C., three-hour incubation; read-out: Potency (IC50).
T1 construct: expressed in transfected cells
Procedure, shortened: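 L1.2 cells stably expressing human CXCR6 incubated 3 h at 4 °C in HBSS/0.1% BSA with 0.1 nM 125I-CXCL16 and graded compound concentrations. Bound radioactivity collected by filtration and counted; IC50 from 3-parameter nonlinear regression.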

T1 sequence (O00574 whole entry): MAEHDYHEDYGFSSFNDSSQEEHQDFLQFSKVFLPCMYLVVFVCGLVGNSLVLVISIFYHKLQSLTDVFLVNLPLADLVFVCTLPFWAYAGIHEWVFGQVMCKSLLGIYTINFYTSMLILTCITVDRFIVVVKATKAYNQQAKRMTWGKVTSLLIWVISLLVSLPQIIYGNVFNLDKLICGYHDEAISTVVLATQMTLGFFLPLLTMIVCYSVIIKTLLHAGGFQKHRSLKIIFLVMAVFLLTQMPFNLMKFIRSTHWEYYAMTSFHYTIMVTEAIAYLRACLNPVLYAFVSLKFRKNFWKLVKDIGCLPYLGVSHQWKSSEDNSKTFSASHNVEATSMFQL

| SMILES | pIC50 |
| --- | --- |
| CCOc1cc(NC(=O)[C@@H](O)C(C)C)ccc1S(=O)(=O)Nc1ccc(F)c(C)c1 [Example 1.440] | 6.12 to 6.70 |
| Cc1cc(NC(=O)c2ccccn2)ccc1S(=O)(=O)Nc1cccc(C(F)(F)F)c1 [Example 1.098] | 4.70 to 5.70 |
| COc1cc(NC(=O)[C@H]2CCCNC2)ccc1S(=O)(=O)Nc1cccc(C(F)(F)F)c1 [Example 1.323] | 4.70 to 5.70 |
| COc1cccc(C(=O)Nc2ccc(S(=O)(=O)Nc3cccc(C(F)(F)F)c3)c(C)c2)c1 [Example 1.534] | 4.70 to 5.70 |
| Cc1cc(NC(=O)[C@@H]2CCCN2)ccc1S(=O)(=O)Nc1cccc(C(F)(F)F)c1 [Example 1.328] | 5.70 to 6.12 |
| Cc1cc(NC(=O)c2ccnn2C)cc(F)c1S(=O)(=O)Nc1cccc(C(F)(F)F)c1 [Example 1.520] | 5.70 to 6.12 |
| CCCc1cc(NC(=O)[C@@H](CO)C(C)C)ccc1S(=O)(=O)Nc1cccc(OC(F)(F)F)c1 [Example 1.311] | ≥ 6.70 |
| CCOc1cc(NC(=O)c2ccnc(N)c2)ccc1S(=O)(=O)Nc1cccc(OC(F)(F)F)c1 [Example 1.117] | ≥ 6.70 |
| Cc1cc(NC(=O)C(CO)c2ccccc2)ccc1S(=O)(=O)Nc1cccc(OC(F)(F)F)c1 (centres unmarked) [Example 1.569] | 6.12 to 6.70 |
| COc1cc(NC(=O)[C@@H]2CCCNC2)ccc1S(=O)(=O)Nc1cccc(C(F)(F)F)c1 [Example 1.471] | 4.70 to 5.70 |
| Cc1cc(NC(=O)N2CCOCC2)ccc1S(=O)(=O)Nc1cccc(C(F)(F)F)c1 [Example 1.148] | 4.70 to 5.70 |
| CCOc1cc(NC(=O)[C@@H](CO)c2ccccc2)ccc1S(=O)(=O)Nc1ccc(C)c(F)c1 [Example 1.184] | 5.70 to 6.12 |
| Cc1cc(NC(=O)C2CCNCC2)ccc1S(=O)(=O)Nc1cccc(C(F)(F)F)c1 [Example 1.381] | 4.70 to 5.70 |
| CCCOc1cc(NC(=O)[C@@H](CO)c2ccccc2)ccc1S(=O)(=O)Nc1cccc(CC(F)(F)F)c1 [Example 1.496] | ≥ 6.70 |
| Cc1cc(NC(=O)[C@H]2CCOC[C@H]2C)ccc1S(=O)(=O)Nc1cccc(C(F)(F)F)c1 (racemic) [Example 1.483] | 6.12 to 6.70 |
| CCOc1cc(NC(=O)[C@@H](O)c2ccccc2)ccc1S(=O)(=O)Nc1cccc(OC(F)(F)F)c1 [Example 1.168] | ≥ 6.70 |
| Cc1cc(NC(=O)[C@@H]2CCCN2C)ccc1S(=O)(=O)Nc1cccc(C(F)(F)F)c1 [Example 1.422] | 4.70 to 5.70 |
| CCOc1cc(NC(=O)[C@@H](CO)c2ccccc2)ccc1S(=O)(=O)Nc1cccc(OC)c1C [Example 1.045] | 4.70 to 5.70 |
| CCOc1cc(NC(=O)[C@@H](N)c2ccccc2)ccc1S(=O)(=O)Nc1ccc(F)c(OC(F)(F)F)c1 [Example 1.560] | ≥ 6.70 |
| Cc1cc(NC(=O)C(F)(F)F)ccc1S(=O)(=O)Nc1cccc(C(F)(F)F)c1 [Example 1.467] | 4.70 to 5.70 |
| COc1cc(NC(=O)C2CC3C=CC2O3)ccc1S(=O)(=O)Nc1cccc(OC(F)(F)F)c1 (centres unmarked) [Example 1.179] | 6.12 to 6.70 |
| COc1cc(NC(=O)c2ccnn2C)ccc1S(=O)(=O)Nc1cc(OC(F)(F)F)ccc1F [Example 1.448] | 6.12 to 6.70 |

| SMILES | pIC50 |
| --- | --- |
| CCOc1cc(NC(=O)[C@@H](N)c2ccccc2)ccc1S(=O)(=O)Nc1ccc(C)c(OC(F)(F)F)c1 [Example 1.462] | ≥ 6.70 |
| CCOc1cc(NC(=O)c2ccc(N(C)C)cc2)ccc1S(=O)(=O)Nc1cccc(OC(F)(F)F)c1 [Example 1.315] | 5.70 to 6.12 |
| CCOc1cc(NC(=O)[C@@H](CO)c2ccccc2)ccc1S(=O)(=O)Nc1ccc(F)c(OC(F)(F)F)c1 [Example 1.208] | ≥ 6.70 |
| CCOc1cc(NC(=O)C(=O)c2ccccc2)ccc1S(=O)(=O)Nc1cccc(OC(F)(F)F)c1 [Example 1.023] | 6.12 to 6.70 |
| CCOc1cc(NC(=O)[C@@H](CO)c2ccccc2)ccc1S(=O)(=O)Nc1ccc(C)c(C(F)(F)F)c1 [Example 1.425] | ≥ 6.70 |
| COc1ccc(NS(=O)(=O)c2ccc(NC(=O)c3ccnn3C)cc2OC)cc1C(F)(F)F [Example 1.580] | 6.12 to 6.70 |
| Cc1cc(NC(=O)c2ccns2)ccc1S(=O)(=O)Nc1cccc(C(F)(F)F)c1 [Example 1.346] | ≥ 6.70 |
| CCCOc1cc(NC(=O)[C@@H](O)C(C)C)ccc1S(=O)(=O)Nc1cccc(OC(F)(F)F)c1 [Example 1.034] | ≥ 6.70 |
| Cc1cc(NC(=O)c2c(Br)cnn2C)ccc1S(=O)(=O)Nc1cccc(C(F)(F)F)c1 [Example 1.284] | 4.70 to 5.70 |
| CCOc1cc(NC(=O)[C@@H](NC(C)=O)c2ccccc2)ccc1S(=O)(=O)Nc1cccc(OC(F)(F)F)c1 [Example 1.313] | ≥ 6.70 |
| CCOc1cc(NC(=O)C(O)c2ccc(Br)cc2)ccc1S(=O)(=O)Nc1cccc(OC(F)(F)F)c1 (centres unmarked) [Example 1.564] | 6.12 to 6.70 |
| CCOc1cc(NC(=O)[C@@H](NC(C)=O)C(C)C)ccc1S(=O)(=O)Nc1ccc(C)c(C(F)(F)F)c1 [Example 1.543] | ≥ 6.70 |
| CCOc1cc(NC(=O)[C@@H](CO)c2ccccc2)ccc1S(=O)(=O)Nc1ccc(Cl)c(C)c1 [Example 1.258] | 6.12 to 6.70 |
| COc1cc(NC(=O)c2ccnn2C)ccc1S(=O)(=O)Nc1ccc(F)c(OC(F)(F)F)c1 [Example 1.409] | ≥ 6.70 |
| CCCc1cc(NC(=O)[C@@H](CO)c2ccccc2)ccc1S(=O)(=O)Nc1cccc(OC(F)(F)F)c1 [Example 1.509] | ≥ 6.70 |
| CCOc1cc(NC(=O)c2ccc(OC)cc2)ccc1S(=O)(=O)Nc1cccc(OC(F)(F)F)c1 [Example 1.568] | 5.70 to 6.12 |
| COc1cc(NC(=O)[C@@H]2CCC[C@H](OC)C2)ccc1S(=O)(=O)Nc1cccc(C(F)(F)F)c1 [Example 1.561] | 4.70 to 5.70 |
| CCOc1cc(NC(=O)[C@@H](CO)C(C)C)ccc1S(=O)(=O)Nc1ccc(C)c(OC(F)(F)F)c1 [Example 1.342] | ≥ 6.70 |
| CCOc1cc(NC(=O)C(O)c2ccc(C)cc2)ccc1S(=O)(=O)Nc1cccc(OC(F)(F)F)c1 (centres unmarked) [Example 1.466] | 6.12 to 6.70 |
| C=Cc1cc(NS(=O)(=O)c2ccc(NC(=O)[C@@H](CO)C(C)C)cc2OCC)ccc1C [Example 1.548] | ≥ 6.70 |
| Cc1cc(NC(=O)c2cnoc2C)ccc1S(=O)(=O)Nc1cccc(C(F)(F)F)c1 [Example 1.255] | 6.12 to 6.70 |

Now from value to compound:

| pIC50 | SMILES |
| --- | --- |
| 5.70 to 6.12 | CCOc1cc(NC(=O)[C@H]2CCCC[C@@H]2O)ccc1S(=O)(=O)Nc1cccc(OC(F)(F)F)c1 [Example 1.169] |
| 6.12 to 6.70 | CCOc1cc(NC(=O)C(C)O)ccc1S(=O)(=O)Nc1cccc(OC(F)(F)F)c1 (centres unmarked) [Example 1.532] |
| 5.70 to 6.12 | CCOc1cc(NC(=O)C(O)C(C)O)ccc1S(=O)(=O)Nc1cccc(OC(F)(F)F)c1 (centres unmarked) [Example 1.164] |
| ≥ 6.70 | CCOc1cc(NC(=O)C(C(=O)O)C2CCOC2)ccc1S(=O)(=O)Nc1cccc(OC(F)(F)F)c1 (centres unmarked) [Example 1.436] |
| ≥ 6.70 | C=C(C)CC(C(=O)O)C(=O)Nc1ccc(S(=O)(=O)Nc2cccc(OC(F)(F)F)c2)c(OCC)c1 (centres unmarked) [Example 1.176] |
| ≥ 6.70 | CCOc1cc(NC(=O)[C@H]2CC=CC[C@@H]2CO)ccc1S(=O)(=O)Nc1cccc(OC(F)(F)F)c1 [Example 1.453] |
| ≥ 6.70 | CCOc1cc(NC(=O)[C@H](CO)C(C)C)ccc1S(=O)(=O)Nc1cccc(OC(F)(F)F)c1 [Example 1.139] |
| ≥ 6.70 | CCOc1cc(NC(=O)[C@@H](O)C(C)CC)ccc1S(=O)(=O)Nc1cccc(OC(F)(F)F)c1 (some centres unmarked) [Example 1.492] |
| 6.12 to 6.70 | CCOc1cc(NC(=O)C2CCCC(=O)C2)ccc1S(=O)(=O)Nc1cccc(OC(F)(F)F)c1 (centres unmarked) [Example 1.269] |
| ≥ 6.70 | CCOc1cc(NC(=O)c2cccnc2C)ccc1S(=O)(=O)Nc1cccc(OC(F)(F)F)c1 [Example 1.200] |
| 4.70 to 5.70 | COc1cc(NC(=O)C2CC(=O)N(C)C2)ccc1S(=O)(=O)Nc1cccc(OC(F)(F)F)c1 (centres unmarked) [Example 1.442] |
| 6.12 to 6.70 | CCOc1cc(NC(=O)CC2(O)CCCCC2)ccc1S(=O)(=O)Nc1cccc(OC(F)(F)F)c1 [Example 1.474] |
| 5.70 to 6.12 | CCOc1cc(NC(=O)C2(O)CC2)ccc1S(=O)(=O)Nc1cccc(OC(F)(F)F)c1 [Example 1.318] |
| 4.70 to 5.70 | CCOc1cc(NC(=O)C2CCCNC2)ccc1S(=O)(=O)Nc1cccc(OC(F)(F)F)c1 (centres unmarked) [Example 1.030] |
| 6.12 to 6.70 | CCOc1cc(NC(=O)C2CCC(=O)C2)ccc1S(=O)(=O)Nc1cccc(OC(F)(F)F)c1 (centres unmarked) [Example 1.152] |
| ≥ 6.70 | CCOc1cc(NC(=O)[C@@H](N)C(C)O)ccc1S(=O)(=O)Nc1cccc(OC(F)(F)F)c1 (some centres unmarked) [Example 1.032] |
| 6.12 to 6.70 | CCOc1cc(NC(=O)C(CO)C2CCOCC2)ccc1S(=O)(=O)Nc1cccc(OC(F)(F)F)c1 (centres unmarked) [Example 1.092] |
| 5.70 to 6.12 | CCOc1cc(NC(=O)C2CCC(O)C2)ccc1S(=O)(=O)Nc1cccc(OC(F)(F)F)c1 (centres unmarked) [Example 1.373] |
| 4.70 to 5.70 | COc1cc(NC(=O)C2CCCCC2=O)ccc1S(=O)(=O)Nc1cccc(OC(F)(F)F)c1 (centres unmarked) [Example 1.457] |
| 6.12 to 6.70 | CCOc1cc(NC(=O)C2CCC(O)CC2)ccc1S(=O)(=O)Nc1cccc(OC(F)(F)F)c1 (centres unmarked) [Example 1.183] |
| ≥ 6.70 | CCOc1cc(NC(=O)[C@H](O)C2CCCC2)ccc1S(=O)(=O)Nc1cccc(OC(F)(F)F)c1 [Example 1.281] |
| 5.70 to 6.12 | CCOc1cc(NC(=O)[C@H]2CC[C@](C)(O)CC2)ccc1S(=O)(=O)Nc1cccc(OC(F)(F)F)c1 [Example 1.227] |
| ≥ 6.70 | CCOc1cc(NC(=O)[C@H]2CC=CC[C@@H]2C(=O)O)ccc1S(=O)(=O)Nc1cccc(OC(F)(F)F)c1 [Example 1.358] |
| ≥ 6.70 | CCOc1cc(NC(=O)c2ccncc2)ccc1S(=O)(=O)Nc1cccc(OC(F)(F)F)c1 [Example 1.366] |
| ≥ 6.70 | CCOc1cc(NC(=O)[C@H]2CCOC[C@H]2CC)ccc1S(=O)(=O)Nc1cccc(OC(F)(F)F)c1 (racemic) [Example 1.233] |
| ≥ 6.70 | CCOc1cc(NC(=O)c2ccc(C)nc2)ccc1S(=O)(=O)Nc1cccc(OC(F)(F)F)c1 [Example 1.149] |
| ≥ 6.70 | CCOc1cc(NC(=O)[C@@H](O)C(C)(C)C)ccc1S(=O)(=O)Nc1cccc(OC(F)(F)F)c1 [Example 1.577] |
| 6.12 to 6.70 | CCOc1cc(NC(=O)CC(C)O)ccc1S(=O)(=O)Nc1cccc(OC(F)(F)F)c1 (centres unmarked) [Example 1.253] |

— patent publication US20230339851A1, “CXCR6 SULFONAMIDE COMPOUNDS” (CHEMOCENTRYX, INC., priority 2022, published 2023)
